What was measured:
[1] = molecular target: T1, BLK (Homo sapiens, UniProt P51451); experiment: ActivX KiNativ native kinase profiling, Ramos cell lysates; format: binding; details: activation loop labelling
T1 construct: purchased Eurofins Scientific
Experimental: (§1) RESULTS AND DISCUSSION—Selectivity—The compound of Formula (III) was evaluated in three selectivity panels to assess the potential for off-target pharmacology (Table 8). […] The kinase off-target profile of The compound of Formula (III) was assessed in a full human wild-type panel using radiometric kinase activity assays (KinaseProfiler™ and IC50Profiler™; Eurofins Scientific) (Table 9; FIG. 23). The compound of Formula (III) inhibited 4/278 kinases >50% at 1 micromolar, identifying BTK and the three other kinases having analogous Cys residues with the potential for covalent inhibition (BMX, TEC, BLK). […]. The cellular kinase selectivity of The compound of Formula (III) was established in native Ramos B cell kinome assays (KiNativ™; ActivX) confirmed BTK as the primary target with inhibition of BLK and TEC inhibition detected (Table 10).

[2] = molecular target: T2, TEC (Homo sapiens, UniProt P42680); experiment: as above; format: binding
T2 construct: purchased Eurofins Scientific
T2 sequence (P42680 1-631): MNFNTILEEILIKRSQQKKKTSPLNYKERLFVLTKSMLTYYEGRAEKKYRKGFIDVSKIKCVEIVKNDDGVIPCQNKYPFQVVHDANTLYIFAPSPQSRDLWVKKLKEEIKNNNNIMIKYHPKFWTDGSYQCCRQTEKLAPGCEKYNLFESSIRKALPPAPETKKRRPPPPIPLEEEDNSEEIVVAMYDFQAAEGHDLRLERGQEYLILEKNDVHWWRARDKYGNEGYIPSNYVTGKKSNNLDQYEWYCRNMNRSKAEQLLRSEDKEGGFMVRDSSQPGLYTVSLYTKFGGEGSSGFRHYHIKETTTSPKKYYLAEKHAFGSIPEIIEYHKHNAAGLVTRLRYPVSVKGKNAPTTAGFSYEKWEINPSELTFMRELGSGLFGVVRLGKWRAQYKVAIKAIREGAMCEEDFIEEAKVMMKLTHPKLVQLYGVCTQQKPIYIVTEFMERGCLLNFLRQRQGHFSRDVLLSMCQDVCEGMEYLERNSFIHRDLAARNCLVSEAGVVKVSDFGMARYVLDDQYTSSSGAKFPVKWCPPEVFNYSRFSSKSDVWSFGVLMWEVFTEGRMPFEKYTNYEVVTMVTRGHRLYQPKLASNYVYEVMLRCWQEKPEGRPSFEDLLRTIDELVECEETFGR
Experimental: as §1

[3] = Metabolic stability in liver microsomes; format: in vitro ADME, mouse
Experimental: (§2) Additional Data on Preclinical PK Profile—Protein binding of the compound of Formula (III) was studied using an equilibrium dialysis method in plasma from human, cynomolgus monkey, beagle dog, Sprague Dawley rat, CD-1 mouse, and guinea pig at 0.25, 2.5, and 25 μM. […] In human and monkey, the plasma protein binding was concentration dependent. […] Free fraction of the compound of Formula (III) in liver microsomes from various species ranged from 75.1% to 87.9% at 0.25 mg/mL and from 58.9% to 86.5% at 1.0 mg/mL (Table 17). […] In hepatocytes, the compound of Formula (III) turnover followed a similar trend, with T1/2 ranging from 75.3 minutes in monkey to 278.1 minutes in human.

[4] = Metabolic stability in hepatocytes; format: in vitro ADME; details: for half-life: read-out: T1/2, hepatocytes
Experimental: as §2

[5] = Metabolic stability in hepatocytes; format: in vitro ADME, monkey
Experimental: as §2

[6] = tested on: PXR; experiment: Puracyp DPX2 luciferase-reporter cell line (CYP3A4 induction); format: in vitro ADME
Experimental: (§3) To assess the potential of the compound of Formula (III) to be a time-dependent inhibitor of CYP3A, human liver microsomes were preincubated for 30 minutes at 37° C. with the compound of Formula (III) at concentrations up to 10 μM, and CYP3A activity was measured using testosterone as a probe substrate. […] The potential of the compound of Formula (III) to induce CYPs at the transcriptional level was assessed using Puracyp™ DPX2 (CYP3A4, PXR) and DRE (CYP1A2, AhR) luciferase-reporter cell lines; rifampicin and omeprazole were used as positive controls for CYP3A and CYP1A induction, respectively. The activation by the compound of Formula (III) was <20% of positive control values for PXR (6.6% and 14.1% at 1 and 10 μM change, respectively) or AhR (0.1% and 0.3% change, respectively). […] Potential involvement of various CYP isoforms in the metabolism of the compound of Formula (III) was investigated by measuring the parent compound remaining after 1-hour incubation with the compound of Formula (III) (1 μM) with recombinant CYPs (rCYPs) at 100 pmol P450/mL in the presence of 1 mM NADPH at 37° C. The only isozyme that produced notable the compound of Formula (III) turnover with <1% parent remaining after 1-hour incubation was CYP3A4 (FIG. 24). […]

[7] = tested on: AhR; experiment: Puracyp DRE luciferase-reporter cell line (CYP1A2 induction); format: in vitro ADME
Experimental: as §3

[8] = Preclinical PK, oral and IV; format: in vivo, monkey

T1 sequence (P51451 whole entry): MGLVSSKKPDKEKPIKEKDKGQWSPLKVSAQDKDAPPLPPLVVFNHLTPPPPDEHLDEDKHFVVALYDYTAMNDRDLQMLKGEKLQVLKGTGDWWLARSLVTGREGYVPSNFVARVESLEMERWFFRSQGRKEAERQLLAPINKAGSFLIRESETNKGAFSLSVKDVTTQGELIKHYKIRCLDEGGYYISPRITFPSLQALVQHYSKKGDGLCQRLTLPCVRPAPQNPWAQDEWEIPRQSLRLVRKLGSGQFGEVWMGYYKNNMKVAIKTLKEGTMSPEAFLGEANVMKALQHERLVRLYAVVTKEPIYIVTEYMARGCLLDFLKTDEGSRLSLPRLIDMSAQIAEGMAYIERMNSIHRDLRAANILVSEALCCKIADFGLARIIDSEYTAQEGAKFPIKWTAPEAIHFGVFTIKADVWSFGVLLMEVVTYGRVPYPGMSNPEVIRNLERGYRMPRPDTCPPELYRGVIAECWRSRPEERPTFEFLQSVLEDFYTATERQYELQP

## C=CC(=O)N[C@H]1CCC[C@H]1NC(=O)c1sc2nccc3c2c1NC(=O)N3c1cnc(CC(C)C)cc1C (atropisomer, axis not shown) [compound of Formula (III), N-((1R,2S)-2-Acrylamidocyclopentyl)-5-(S)-(6-isobutyl-4-methylpyridin-3-yl)-4-oxo-4,5-dihydro-3H-1-thia-3,5,8-triazaacenaphthylene-2-carboxamide]
[1]
  inhibition at 1 µM: 61.9%
[2]
  inhibition at 1 µM: 77.6%
[3]; Mouse
  Extraction Ratio, liver microsomes: 0.79
[3]; mouse, liver microsomes
  microsomal CLint: 142 µL/min/mg
[3]; mouse, liver microsomes, read-out: T1/2, liver microsomes
  half-life: 4.9 min
[4]; dog
  hepatocyte CLint: 19.2 µL/min/1e6 cells
  half-life: 4.62 h
[4]; human
  hepatocyte CLint: 15.4 µL/min/1e6 cells
  half-life: 4.64 h
[4]; rat
  hepatocyte CLint: 52.3 µL/min/1e6 cells
  half-life: 2.12 h
[5]
  Extraction Ratio, hepatocytes: 0.78
[5]; monkey, hepatocytes
  hepatocyte CLint: 66.3 µL/min/1e6 cells
[5]; monkey, hepatocytes, read-out: T1/2, hepatocytes
  half-life: 1.25 h
[6]; 1 μM
  PXR activation, % of positive control (rifampicin): 6.6%
[6]; 10 μM
  PXR activation, % of positive control (rifampicin): 14.1%
[7]; 1 μM
  AhR activation, % of positive control (omeprazole): 0.1%
[7]; 10 μM
  AhR activation, % of positive control (omeprazole): 0.3%
[8]; monkey, in vivo, iv
  clearance: 3.1 ± 0.3 mL/min/kg
[8]; monkey, in vivo, iv, read-out: IV T1/2 (converted)
  half-life: 4 h
[8]; monkey, in vivo, iv, read-out: Vss
  Vd: 0.7 L/kg
[8]; monkey, in vivo, oral
  Cmax: 1010 ± 94 ng/mL
  Tmax: 1.7 ± 0.6 h
[8]; monkey, in vivo, oral, read-out: Oral AUCinf
  AUC(0-inf): 10000 ± 2270 ng·h/mL
[8]; oral, monkeys
  F: 75 ± 17%

Source: patent publication US12622910B2, “Inhibitors of Bruton's tyrosine kinase and methods of their use” (Janssen Pharmaceutica NV, priority 2021, dated 2026)
